Measured values as given in patent publication US9919060B2 (University Court of the University of Dundee, priority 2009, dated 2018).

Legend:
CYP1A1 [1] = target: T1, CYP1A1 (Homo sapiens, UniProt P04798); conditions: TMS 10 nmol dm^−3; without inhibitor 21 ± 3
T1 sequence (P04798 1-512): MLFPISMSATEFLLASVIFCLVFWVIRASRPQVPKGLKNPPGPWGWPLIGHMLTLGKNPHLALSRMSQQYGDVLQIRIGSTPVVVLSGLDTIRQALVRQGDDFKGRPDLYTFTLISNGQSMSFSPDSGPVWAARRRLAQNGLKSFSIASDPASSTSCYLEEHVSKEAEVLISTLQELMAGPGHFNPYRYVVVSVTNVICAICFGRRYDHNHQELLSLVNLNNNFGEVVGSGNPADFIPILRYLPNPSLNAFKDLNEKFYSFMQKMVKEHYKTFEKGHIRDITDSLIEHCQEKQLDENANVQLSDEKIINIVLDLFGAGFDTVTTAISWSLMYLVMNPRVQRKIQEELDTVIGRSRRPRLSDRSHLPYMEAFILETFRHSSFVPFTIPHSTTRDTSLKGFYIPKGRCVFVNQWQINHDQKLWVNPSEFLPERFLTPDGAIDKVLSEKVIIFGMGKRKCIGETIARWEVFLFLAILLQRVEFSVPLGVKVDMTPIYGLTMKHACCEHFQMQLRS

CYP1B1 = target: T2, CYP1B1 (Homo sapiens, UniProt Q16678); test: CYP1B1 substrate prediction model (Gaussian Kernel weighted k-NN)
T2 sequence (Q16678 1-543): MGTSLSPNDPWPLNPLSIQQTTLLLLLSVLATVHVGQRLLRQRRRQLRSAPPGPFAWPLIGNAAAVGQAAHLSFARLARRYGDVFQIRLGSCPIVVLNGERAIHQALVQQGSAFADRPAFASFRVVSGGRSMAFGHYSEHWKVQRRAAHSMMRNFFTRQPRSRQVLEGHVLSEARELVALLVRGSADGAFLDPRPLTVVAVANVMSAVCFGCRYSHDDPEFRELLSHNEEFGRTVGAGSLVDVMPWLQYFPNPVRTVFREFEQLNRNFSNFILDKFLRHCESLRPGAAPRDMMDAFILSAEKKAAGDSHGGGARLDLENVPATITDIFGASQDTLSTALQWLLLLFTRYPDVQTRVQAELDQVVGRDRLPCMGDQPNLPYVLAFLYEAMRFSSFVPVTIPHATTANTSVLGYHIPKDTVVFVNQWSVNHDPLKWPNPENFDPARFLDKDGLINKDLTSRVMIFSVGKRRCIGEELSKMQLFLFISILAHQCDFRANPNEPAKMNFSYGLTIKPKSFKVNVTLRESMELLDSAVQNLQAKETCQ

CYP1A1 [2] = target: T1, CYP1A1; format: cell-based; conditions: TMS 10 nmol dm^−3; without inhibitor 29 ± 4
Protocol: (§1) Dihydrofolate reductase (DHFR) gene amplification of either human cDNA CYP1A1 or cDNA CYP1B1 in CHO cells was used to achieve high levels of functional enzyme when co-expressed with human P450 reductase (ibid.; Ding S, et al., Biochem J., 356(Pt 2): 613-9, 2001). […] The resulting cell lines were analysed for CYP1A1 or CYP1B1 expression by immunoblotting. […]
(§2) The ethoxyresorufin O-deethylation (EROD) assay is widely used to confirm functional CYP1 activity (Chang T K and Waxman D J, “Enzymatic Analysis of cDNA-Expressed Human CYP1A1, CYP1A2, and CYP1B1 with 7-Ethoxyresorufin as Substrate”, Methods Mol. Biol., 320: 85-90, 2006, the contents of which are incorporated herein by reference). The assay determines O-dealkylation of 7-ethoxyresorufin by CYP1A1, CYP1A2, and CYP1B1 to generate the enzymatic product resorufin, which is monitored continuously by fluorescence emission at 580 nm. […]

[3] = substrate: CCOc1ccc2nc3ccc(=O)cc-3oc2c1; format: cell-based, human; conditions: other: fluorogenic substrate
Protocol: as §1, §2

O=P1(N(CCCl)CCCl)NCCCO1 (stereo not drawn) [cyclophosphamide]
Toxicity in the CHO cytotoxicity assay at highest concentration (wild-type CHO cells): non-toxic

COc1cc(/C=C/c2ccc(OC)cc2OC)cc(OC)c1 [tetramethoxystilbene]
Specific activity, CHO/CYP1A1, Luciferin-CEE (CYP1A1 [1]): 20 ± 5 pmol resorufin or luciferin min^−1 mg protein^−1 | % CYP1B1 substrate inhibition, accuracy (predicted versus actual) (CYP1B1): 98% | Specific activity, CHO/CYP1A1, ethoxyresorufin (CYP1A1 [2]): 26 ± 4 pmol resorufin or luciferin min^−1 mg protein^−1

B1: CYP1B1 (Homo sapiens) (protein)
chain: MGTSLSPNDPWPLNPLSIQQTTLLLLLSVLATVHVGQRLLRQRRRQLRSAPPGPFAWPLIGNAAAVGQAAHLSFARLARRYGDVFQIRLGSCPIVVLNGERAIHQALVQQGSAFADRPAFASFRVVSGGRSMAFGHYSEHWKVQRRAAHSMMRNFFTRQPRSRQVLEGHVLSEARELVALLVRGSADGAFLDPRPLTVVAVANVMSAVCFGCRYSHDDPEFRELLSHNEEFGRTVGAGSLVDVMPWLQYFPNPVRTVFREFEQLNRNFSNFILDKFLRHCESLRPGAAPRDMMDAFILSAEKKAAGDSHGGGARLDLENVPATITDIFGASQDTLSTALQWLLLLFTRYPDVQTRVQAELDQVVGRDRLPCMGDQPNLPYVLAFLYEAMRFSSFVPVTIPHATTANTSVLGYHIPKDTVVFVNQWSVNHDPLKWPNPENFDPARFLDKDGLINKDLTSRVMIFSVGKRRCIGEELSKMQLFLFISILAHQCDFRANPNEPAKMNFSYGLTIKPKSFKVNVTLRESMELLDSAVQNLQAKETCQ
Km [3]: Ethoxyresorufin for CYP1A1and CYP1B1 Km ~0.27 μmol dm^−3 μmol dm^−3

B2: CYP1A1 (Homo sapiens) (protein)
chain: MLFPISMSATEFLLASVIFCLVFWVIRASRPQVPKGLKNPPGPWGWPLIGHMLTLGKNPHLALSRMSQQYGDVLQIRIGSTPVVVLSGLDTIRQALVRQGDDFKGRPDLYTFTLISNGQSMSFSPDSGPVWAARRRLAQNGLKSFSIASDPASSTSCYLEEHVSKEAEVLISTLQELMAGPGHFNPYRYVVVSVTNVICAICFGRRYDHNHQELLSLVNLNNNFGEVVGSGNPADFIPILRYLPNPSLNAFKDLNEKFYSFMQKMVKEHYKTFEKGHIRDITDSLIEHCQEKQLDENANVQLSDEKIINIVLDLFGAGFDTVTTAISWSLMYLVMNPRVQRKIQEELDTVIGRSRRPRLSDRSHLPYMEAFILETFRHSSFVPFTIPHSTTRDTSLKGFYIPKGRCVFVNQWQINHDQKLWVNPSEFLPERFLTPDGAIDKVLSEKVIIFGMGKRKCIGETIARWEVFLFLAILLQRVEFSVPLGVKVDMTPIYGLTMKHACCEHFQMQLRS
Km [3]: Ethoxyresorufin for CYP1A1and CYP1B1 Km ~0.27 μmol dm^−3 μmol dm^−3
